From paper PMC7523345 (Investigational new drugs, 2018)
“Also recorded” adds a separate entry of the source.

Experiment: Phase I dose escalation study: safety, tolerability, DLT and MTD
Format: in vivo

## Cc1cccc2c1NC(=O)[C@@H](NC(=O)[C@H](CCC(F)(F)F)[C@H](CCC(F)(F)F)C(N)=O)N=C2c1cccc(F)c1 [BMS-986115]
Arm A QD 0.6 mg (N = 2)
  Rash maculopapular (drug related AE, all grades): 0 n (%)
  Sinusitis (drug related AE, all grades): 0 n (%)
  Urticaria (drug related AE, Grade 3 and 4): 0 n (%)
  Vision blurred (drug related AE, all grades): 0 n (%)
  Vomiting (drug related AE, Grade 3 and 4): 0 n (%)
  Vomiting (drug related AE, all grades): 1 (50) n (%)
  Weight decreased (drug related AE, all grades): 0 n (%)
Arm A QD 0.6 mg, 2 DLT evaluable patients
  No. of patients with DLTs: 0
Arm A QD 1.2 mg (N = 6)
  Abdominal distension (drug related AE, all grades): 0 n (%)
  Abdominal pain (drug related AE, Grade 3 and 4): 0 n (%)
  Abdominal pain (drug related AE, all grades): 0 n (%)
  Blood creatinine increased (drug related AE, all grades): 0 n (%)
  Colitis (drug related AE, Grade 3 and 4): 1 (17) n (%)
  Cough (drug related AE, Grade 3 and 4): 0 n (%)
  Cough (drug related AE, all grades): 0 n (%)
  Decreased Appetite (drug related AE, Grade 3 and 4): 0 n (%)
  Decreased Appetite (drug related AE, all grades): 2 (33) n (%)
  Dehydration (drug related AE, Grade 3 and 4): 0 n (%)
  Dehydration (drug related AE, all grades): 2 (33) n (%)
  Dermatitis acneiform (drug related AE, all grades): 0 n (%)
  Diarrhoea (drug related AE, Grade 3 and 4): 1 (17) n (%)
  Diarrhoea (drug related AE, all grades): 6 (100) n (%)
  Dry mouth (drug related AE, all grades): 1 (17) n (%)
  Dry skin (drug related AE, all grades): 1 (17) n (%)
  Dysgeusia (drug related AE, all grades): 2 (33) n (%)
  Dyspepsia (drug related AE, all grades): 1 (17) n (%)
  Dysphonia (drug related AE, all grades): 0 n (%)
  Fatigue (drug related AE, Grade 3 and 4): 0 n (%)
  Fatigue (drug related AE, all grades): 2 (33) n (%)
  Flatulence (drug related AE, all grades): 0 n (%)
  Hypocalcaemia (drug related AE, Grade 3 and 4): 0 n (%)
  Hypocalcaemia (drug related AE, all grades): 0 n (%)
  Hypokalaemia (drug related AE, Grade 3 and 4): 1 (17) n (%)
  Hypokalaemia (drug related AE, all grades): 3 (50) n (%)
  Hyponatraemia (drug related AE, Grade 3 and 4): 0 n (%)
  Hyponatraemia (drug related AE, all grades): 0 n (%)
  Hypophosphataemia (drug related AE, Grade 3 and 4): 2 (33) n (%)
  Hypophosphataemia (drug related AE, all grades): 6 (100) n (%)
  Ileus (drug related AE, Grade 3 and 4): 0 n (%)
  Increased upper airway secretion (drug related AE, all grades): 0 n (%)
  Laryngeal pain (drug related AE, all grades): 0 n (%)
  Leucocytosis (drug related AE, Grade 3 and 4): 0 n (%)
  Mouth ulceration (drug related AE, all grades): 1 (17) n (%)
  Nausea (drug related AE, Grade 3 and 4): 0 n (%)
  Nausea (drug related AE, all grades): 4 (67) n (%)
  Pruritus (drug related AE, Grade 3 and 4): 0 n (%)
  Pruritus (drug related AE, all grades): 0 n (%)
  Pulmonary embolism (drug related AE, Grade 3 and 4): 0 n (%)
  Rash (drug related AE, all grades): 3 (50) n (%)
  Rash maculopapular (drug related AE, all grades): 0 n (%)
  Sinusitis (drug related AE, all grades): 1 (17) n (%)
  Urticaria (drug related AE, Grade 3 and 4): 0 n (%)
  Vision blurred (drug related AE, all grades): 0 n (%)
  Vomiting (drug related AE, Grade 3 and 4): 0 n (%)
  Vomiting (drug related AE, all grades): 2 (33) n (%)
  Weight decreased (drug related AE, all grades): 1 (17) n (%)
Arm A QD 1.5 mg
  Description of DLT: Gr 3 nausea; also recorded: G3 nausea
  Description of study drug toxicity that led to treatment discontinuation: G3 Nausea concurrent with G2 diarrhoea (N = 1); also recorded: G2 Dermatitis acneiform (N = 1)
Arm A QD 1.5 mg (N = 7)
  Abdominal distension (drug related AE, all grades): 1 (14) n (%)
  Abdominal pain (drug related AE, Grade 3 and 4): 1 (14) n (%)
  Abdominal pain (drug related AE, all grades): 1 (14) n (%)
  Blood creatinine increased (drug related AE, all grades): 0 n (%)
  Colitis (drug related AE, Grade 3 and 4): 0 n (%)
  Cough (drug related AE, Grade 3 and 4): 0 n (%)
  Cough (drug related AE, all grades): 2 (29) n (%)
  Decreased Appetite (drug related AE, Grade 3 and 4): 0 n (%)
  Decreased Appetite (drug related AE, all grades): 1 (14) n (%)
  Dehydration (drug related AE, Grade 3 and 4): 0 n (%)
  Dehydration (drug related AE, all grades): 0 n (%)
  Dermatitis acneiform (drug related AE, all grades): 4 (57) n (%)
  Diarrhoea (drug related AE, Grade 3 and 4): 2 (29) n (%)
  Diarrhoea (drug related AE, all grades): 6 (86) n (%)
  Dry mouth (drug related AE, all grades): 0 n (%)
  Dry skin (drug related AE, all grades): 1 (14) n (%)
  Dysgeusia (drug related AE, all grades): 0 n (%)
  Dyspepsia (drug related AE, all grades): 0 n (%)
  Dysphonia (drug related AE, all grades): 1 (14) n (%)
  Fatigue (drug related AE, Grade 3 and 4): 1 (14) n (%)
  Fatigue (drug related AE, all grades): 4 (57) n (%)
  Flatulence (drug related AE, all grades): 0 n (%)
  Hypocalcaemia (drug related AE, Grade 3 and 4): 0 n (%)
  Hypocalcaemia (drug related AE, all grades): 1 (14) n (%)
  Hypokalaemia (drug related AE, Grade 3 and 4): 1 (14) n (%)
  Hypokalaemia (drug related AE, all grades): 2 (29) n (%)
  Hyponatraemia (drug related AE, Grade 3 and 4): 1 (14) n (%)
  Hyponatraemia (drug related AE, all grades): 1 (14) n (%)
  Hypophosphataemia (drug related AE, Grade 3 and 4): 2 (29) n (%)
  Hypophosphataemia (drug related AE, all grades): 4 (57) n (%)
  Ileus (drug related AE, Grade 3 and 4): 0 n (%)
  Increased upper airway secretion (drug related AE, all grades): 0 n (%)
  Laryngeal pain (drug related AE, all grades): 2 (29) n (%)
  Leucocytosis (drug related AE, Grade 3 and 4): 0 n (%)
  Mouth ulceration (drug related AE, all grades): 0 n (%)
  Nausea (drug related AE, Grade 3 and 4): 2 (29) n (%)
  Nausea (drug related AE, all grades): 5 (71) n (%)
  Pruritus (drug related AE, Grade 3 and 4): 0 n (%)
  Pruritus (drug related AE, all grades): 2 (29) n (%)
  Pulmonary embolism (drug related AE, Grade 3 and 4): 1 (14) n (%)
  Rash (drug related AE, all grades): 2 (29) n (%)
  Rash maculopapular (drug related AE, all grades): 0 n (%)
  Sinusitis (drug related AE, all grades): 0 n (%)
  Urticaria (drug related AE, Grade 3 and 4): 0 n (%)
  Vision blurred (drug related AE, all grades): 1 (14) n (%)
  Vomiting (drug related AE, Grade 3 and 4): 0 n (%)
  Vomiting (drug related AE, all grades): 4 (57) n (%)
  Weight decreased (drug related AE, all grades): 1 (14) n (%)
Arm A QD 1.5 mg, 6 DLT evaluable patients
  No. of patients with DLTs: 1
Arm A QD 2.0 mg
  Description of DLT: Gr 3 ileus; Gr 3 nausea; Gr 3 pruritus/urticaria; also recorded: G3 ileus; also recorded: G3 nausea; also recorded: G3 pruritus/urticaria
Arm A QD 2.0 mg (N = 7)
  Abdominal distension (drug related AE, all grades): 0 n (%)
  Abdominal pain (drug related AE, Grade 3 and 4): 0 n (%)
  Abdominal pain (drug related AE, all grades): 1 (14) n (%)
  Blood creatinine increased (drug related AE, all grades): 1 (14) n (%)
  Colitis (drug related AE, Grade 3 and 4): 0 n (%)
  Cough (drug related AE, Grade 3 and 4): 1 (14) n (%)
  Cough (drug related AE, all grades): 1 (14) n (%)
  Decreased Appetite (drug related AE, Grade 3 and 4): 0 n (%)
  Decreased Appetite (drug related AE, all grades): 5 (71) n (%)
  Dehydration (drug related AE, Grade 3 and 4): 0 n (%)
  Dehydration (drug related AE, all grades): 1 (14) n (%)
  Dermatitis acneiform (drug related AE, all grades): 0 n (%)
  Diarrhoea (drug related AE, Grade 3 and 4): 1 (14) n (%)
  Diarrhoea (drug related AE, all grades): 5 (71) n (%)
  Dry mouth (drug related AE, all grades): 1 (14) n (%)
  Dry skin (drug related AE, all grades): 1 (14) n (%)
  Dysgeusia (drug related AE, all grades): 1 (14) n (%)
  Dyspepsia (drug related AE, all grades): 1 (14) n (%)
  Dysphonia (drug related AE, all grades): 3 (43) n (%)
  Fatigue (drug related AE, Grade 3 and 4): 0 n (%)
  Fatigue (drug related AE, all grades): 4 (57) n (%)
  Flatulence (drug related AE, all grades): 0 n (%)
  Hypocalcaemia (drug related AE, Grade 3 and 4): 0 n (%)
  Hypocalcaemia (drug related AE, all grades): 0 n (%)
  Hypokalaemia (drug related AE, Grade 3 and 4): 2 (29) n (%)
  Hypokalaemia (drug related AE, all grades): 2 (29) n (%)
  Hyponatraemia (drug related AE, Grade 3 and 4): 0 n (%)
  Hyponatraemia (drug related AE, all grades): 0 n (%)
  Hypophosphataemia (drug related AE, Grade 3 and 4): 3 (43) n (%)
  Hypophosphataemia (drug related AE, all grades): 3 (43) n (%)
  Ileus (drug related AE, Grade 3 and 4): 1 (14) n (%)
  Increased upper airway secretion (drug related AE, all grades): 0 n (%)
  Laryngeal pain (drug related AE, all grades): 0 n (%)
